# What was measured:
# [1] = Lipophilicity, logD of compound at pH 7.4; format: physicochemical; settings: buffer
# [2] = Plasma protein binding in human assessed as unbound fraction incubated for 24 hrs by equilibrium dialysis based Rapidfire-QToF mass spectrometric analysis; format: ADME, cell-free
# [3] = Apparent permeability across apical to basolateral side in cMDR1 knockout MDCK-II cells incubated upto 240 mins by RF-QToF analysis; format: ADME, cell-based, Canis lupus familiaris; settings: dog
# [4] = biological target: T1, Lysophosphatidic acid receptor 1 (Homo sapiens, UniProt Q92633); test: Antagonist activity at LPA1 receptor in serum starved human TWNT-4 cells assessed as nuclear translocation pre-incubated for 1 hr followed by LPA stimulation and measured after 30 min by MRTF-A assay; format: cell-based
# [5] = Dissociation constant, pKa of compound at 100 uM by capillary electrophoresis; format: physicochemical
# [6] = Drug excretion in bile-duct cannulated rat urine at 1 mg/kg, iv; format: ADME, organism-based; settings: read-out: Drug excretion
# [7] = Metabolic stability in male Sprague-Dawley rat liver microsomes assessed as intrinsic clearance at 1 uM by LC/MS/MS analysis; format: ADME, Microsome; settings: read-out: CLH (converted)
# [8] = Metabolic stability in Beagle dog liver microsomes assessed as intrinsic clearance at 1 uM by LC/MS/MS analysis; format: ADME, Canis lupus familiaris, Microsome; settings: read-out: CLH (converted)
# [9] = Metabolic stability in cynomolgus monkey liver microsomes assessed as intrinsic clearance at 1 uM by LC/MS/MS analysis; format: ADME, Macaca fascicularis, Microsome; settings: read-out: CLH (converted)
# [10] = Volume of distribution in male Sprague-Dawley rat at 1 mg/kg, iv s measured after 24 hrs by LC/MS/MS analysis; format: ADME, organism-based; settings: in vivo
# [11] = Volume of distribution in Beagle dog at 1 mg/kg, iv measured after 24 hrs by LC/MS/MS analysis; format: ADME, organism-based, Canis lupus familiaris; settings: in vivo
# [12] = Volume of distribution in cynomolgus monkey at 1 mg/kg, iv measured after 24 hrs by LC/MS/MS analysis; format: ADME, organism-based, Macaca fascicularis; settings: in vivo
# [13] = AUC (0 to 24 hrs) in male Sprague-Dawley rat at 5 mg/kg, po measured after 24 hrs by LC/MS/MS analysis; format: ADME, organism-based; settings: in vivo
# [14] = AUC (0 to 24 hrs) in Beagle dog at 5 mg/kg, po measured after 24 hrs by LC/MS/MS analysis; format: ADME, organism-based, Canis lupus familiaris; settings: in vivo
# [15] = AUC (0 to 24 hrs) in cynomolgus monkey at 5 mg/kg, po measured after 24 hrs by LC/MS/MS analysis; format: ADME, organism-based, Macaca fascicularis; settings: in vivo
# [16] = Half-life in male Sprague-Dawley rat at 1 mg/kg, iv measured after 24 hrs by LC/MS/MS analysis; format: ADME, organism-based; settings: in vivo
# [17] = Half-life in Beagle dog at 5 mg/kg, po measured after 24 hrs by LC/MS/MS analysis; format: ADME, organism-based, Canis lupus familiaris; settings: in vivo
# [18] = Half-life in cynomolgus monkey at 5 mg/kg, po measured after 24 hrs by LC/MS/MS analysis; format: ADME, organism-based, Macaca fascicularis; settings: in vivo
# [19] = Oral bioavailability in male Sprague-Dawley rat at 5 mg/kg measured after 24 hrs by LC/MS/MS analysis; format: ADME, organism-based; settings: in vivo
# [20] = Oral bioavailability in Beagle dog at 5 mg/kg measured after 24 hrs by LC/MS/MS analysis; format: ADME, organism-based, Canis lupus familiaris; settings: in vivo
# [21] = Oral bioavailability in cynomolgus monkey at 5 mg/kg measured after 24 hrs by LC/MS/MS analysis; format: ADME, organism-based, Macaca fascicularis; settings: in vivo
# [22] = biological target: T1, Lysophosphatidic acid receptor 1; test: […] at LPA1 receptor in human TWNT-4 cells assessed as nuclear translocation pre-incubated for 1 hr followed by 30 min incubation by MRTF-A assay; format: functional, cell-based
# [23] = biological target: T1, Lysophosphatidic acid receptor 1; test: […] at LPA1 receptor in human TWNT-4 cells pre-incubated for 1 hr followed by 30 mins incubation in presence of 4% human serum albumin by MRTF-A assay; format: functional, cell-based
# T1 sequence (Q92633 whole entry): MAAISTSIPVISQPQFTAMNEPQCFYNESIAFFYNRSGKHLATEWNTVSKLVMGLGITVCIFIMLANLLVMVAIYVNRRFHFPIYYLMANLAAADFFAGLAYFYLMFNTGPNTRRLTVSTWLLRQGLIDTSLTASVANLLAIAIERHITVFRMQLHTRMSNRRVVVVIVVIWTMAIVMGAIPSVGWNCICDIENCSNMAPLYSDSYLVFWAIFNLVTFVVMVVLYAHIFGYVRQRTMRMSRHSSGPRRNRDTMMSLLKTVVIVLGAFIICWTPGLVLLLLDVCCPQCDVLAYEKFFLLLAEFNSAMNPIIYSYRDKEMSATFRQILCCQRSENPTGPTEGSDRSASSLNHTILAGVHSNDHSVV
logD [1],EC50 [4],Compound,fraction unbound at 24 h [2],Papp A→B at 4 h [3],other results
1.5,0.109 µM,Cc1nc(-c2nnn(C)c2NC(=O)O[C@H](C)c2cccnc2Cl)ccc1NS(C)(=O)=O,0.17,5.9 ×10⁻⁶ cm/s,pKa at 100 µM [5]: 7.1; dose excreted [6]: 50%
1.9,,C[C@@H](OC(=O)Nc1c(-c2ccc(NS(C)(=O)=O)cn2)nnn1C)c1ccccc1,0.27,13 ×10⁻⁶ cm/s,
2.7,,C[C@@H](OC(=O)Nc1c(-c2ccc(NC(=O)c3ccnc(C(F)(F)F)c3)cn2)nnn1C)c1cc(F)cnc1F,0.14,4.6 ×10⁻⁶ cm/s,
2.4,0.953 µM,Cc1nc(-c2nnn(C)c2NC(=O)O[C@H](C)c2cc(F)ccc2F)ccc1NS(C)(=O)=O,0.19,20 ×10⁻⁶ cm/s,
2.2,,Cc1nc(-c2nnn(C)c2NC(=O)O[C@H](C)c2ccccc2)ccc1NS(C)(=O)=O,0.2,27 ×10⁻⁶ cm/s,
1.8,0.083 µM,Cc1nc(-c2nnn(C)c2NC(=O)O[C@H](C)c2cc(F)cnc2Cl)ccc1NS(C)(=O)=O,0.13,13 ×10⁻⁶ cm/s,
2.3,0.417 µM,C[C@@H](OC(=O)Nc1c(-c2ccc(N)cc2)nnn1C)c1ccccc1Cl,,,
2.2,,C[C@@H](OC(=O)Nc1c(-c2ccc(S(N)(=O)=O)cc2)nnn1C)c1ccccc1Cl,,,
2.2,,Cc1nc(-c2nnn(C)c2NC(=O)O[C@H](C)c2cccc(F)c2)ccc1NS(C)(=O)=O,0.22,23 ×10⁻⁶ cm/s,
1.6,0.081 µM,Cn1nnc(-c2ccc(NS(C)(=O)=O)cn2)c1NC(=O)O[C@H](CF)c1ccccc1,0.27,5 ×10⁻⁶ cm/s,
2.5,0.237 µM,C[C@@H](OC(=O)Nc1c(-c2ccc(O)cc2)nnn1C)c1ccccc1Cl,,,
2.7,0.89 µM,C[C@@H](OC(=O)Nc1c(-c2ccc(N(C)S(C)(=O)=O)cc2)nnn1C)c1ccccc1Cl,,,
2.2,0.03 µM,C[C@@H](OC(=O)Nc1c(-c2ccc(NS(C)(=O)=O)cn2)nnn1C)c1ccccc1Cl,,19 ×10⁻⁶ cm/s,
3.3,0.02 µM,C[C@@H](OC(=O)Nc1c(-c2ccc(NC(=O)C(F)(F)F)cc2)nnn1C)c1ccccc1Cl,,,
1.9,0.522 µM,C[C@@H](OC(=O)Nc1c(-c2ccc(NS(C)(=O)=O)cn2)nnn1C)c1cccc(F)c1,0.25,15 ×10⁻⁶ cm/s,
2.1,0.122 µM,C[C@@H](OC(=O)Nc1c(-c2ccc(NS(C)(=O)=O)cn2)nnn1C)c1cc(F)ccc1F,0.18,16 ×10⁻⁶ cm/s,
3,> 10 µM,C[C@@H](OC(=O)Nc1c(-c2ccc(NS(=O)(=O)C(C)(C)C)cc2)nnn1C)c1ccccc1Cl,,,
2.2,0.032 µM,C[C@@H](OC(=O)Nc1c(-c2ccc(NS(=O)(=O)CC#N)cc2)nnn1C)c1ccccc1Cl,,,
1.3,7.92 µM,C[C@@H](OC(=O)Nc1c(-c2ccc(N)cn2)nnn1C)c1cc(F)cnc1F.Cl,0.71,15 ×10⁻⁶ cm/s,
1.3,1.35 µM,CC(=O)Nc1ccc(-c2nnn(C)c2NC(=O)O[C@H](C)c2cc(F)cnc2F)nc1,0.36,7.7 ×10⁻⁶ cm/s,
2.5,0.045 µM,Cc1nc(-c2nnn(C)c2NC(=O)O[C@@H](c2ccccc2)C(F)(F)F)ccc1NS(C)(=O)=O,0.2,18 ×10⁻⁶ cm/s,

# More lines, now with the values behind:
Compound,logD [1],EC50 [4],fraction unbound at 24 h [2],Papp A→B at 4 h [3],other results
C[C@@H](OC(=O)Nc1c(-c2ccc(NS(C)(=O)=O)cn2)nnn1C)c1cc(F)cnc1Cl,1.7,,0.18,5.5 ×10⁻⁶ cm/s,
C[C@@H](OC(=O)Nc1c(-c2ccc(NC(=O)[C@@H]3CC3(F)F)cn2)nnn1C)c1cc(F)cnc1F,2.2,0.576 µM,0.35,12 ×10⁻⁶ cm/s,
C[C@@H](OC(=O)Nc1c(-c2ccc(NS(C)(=O)=O)cn2)nnn1C)c1cccnc1Cl,1.3,0.108 µM,0.26,2.8 ×10⁻⁶ cm/s,
CC(=O)N(C)c1ccc(-c2nnn(C)c2NC(=O)O[C@H](C)c2ccccc2Cl)cc1,2.2,7.53 µM,,,
Cc1nc(-c2nnn(C)c2NC(=O)O[C@H](CF)c2ccccc2)ccc1NS(C)(=O)=O,1.9,0.031 µM,0.29,17 ×10⁻⁶ cm/s,
C[C@@H](OC(=O)Nc1c(-c2ccc(NC(=O)C34CC(C#N)(C3)C4)cn2)nnn1C)c1cc(F)cnc1F,2,0.051 µM,0.31,8.3 ×10⁻⁶ cm/s,
Cc1nc(-c2nnn(C)c2NC(=O)O[C@H](C)c2cc(F)cnc2F)ccc1NS(C)(=O)=O,1.7,0.124 µM,0.15,8.8 ×10⁻⁶ cm/s,
C[C@@H](OC(=O)Nc1c(-c2ccccc2)nnn1C)c1ccccc1Cl,3.2,,,,
C[C@@H](OC(=O)Nc1c(-c2ccc(NC(=O)C3(C#N)CC3)cn2)nnn1C)c1cc(F)cnc1F,1.9,0.037 µM,0.46,21 ×10⁻⁶ cm/s,
C[C@@H](OC(=O)Nc1c(-c2ccc(NS(C)(=O)=O)cn2)nnn1C)c1cc(F)cnc1F,1.5,0.035 µM,0.31,3.2 ×10⁻⁶ cm/s,CLint scaled at 1 µM [7]: 18.5 mL/min/kg; CLint scaled at 1 µM [8]: 8.67 mL/min/kg; CLint scaled at 1 µM [9]: 7.17 mL/min/kg; Vd [10]: 1 L/kg; Vd [11]: 1 L/kg; Vd [12]: 0.4 L/kg; AUC(0-t) at 24 h [13]: 5.4 µM·h; AUC(0-t) at 24 h [14]: 25 µM·h; AUC(0-t) at 24 h [15]: 13 µM·h; half-life [16]: 3 h; half-life [17]: 3.6 h; half-life [18]: 3.8 h; bioavailability [19]: 55%; bioavailability [20]: 100%; bioavailability [21]: 45%
C[C@@H](OC(=O)Nc1c(-c2ccc(NS(C)(=O)=O)cc2)nnn1C)c1ccccc1Cl,2.4,0.012 µM,,,
C[C@@H](OC(=O)Nc1c(-c2ccc(NC(=O)c3ccc(C(F)(F)F)nc3)cn2)nnn1C)c1cc(F)cnc1F,2.7,0.025 µM,0.15,14 ×10⁻⁶ cm/s,
CCCCCCCC/C=C\CCCCCCCC(=O)OC[C@@H](O)COP(=O)(O)O [LYSOPHOSPHATIDIC ACID],,,,,EC50 [22]: 0.0473 µM; EC50 [23]: 0.306 µM
Cc1nc(-c2nnn(C)c2NC(=O)O[C@H](C)c2ccccc2Cl)ccc1NS(C)(=O)=O,2.5,0.011 µM,0.13,27 ×10⁻⁶ cm/s,
C[C@@H](OC(=O)Nc1c(-c2ccc(NS(C)(=O)=O)cn2)nnn1C)c1cccnc1F,1.1,0.186 µM,0.3,4.4 ×10⁻⁶ cm/s,
Cc1nc(-c2nnn(C)c2NC(=O)O[C@H](C)c2cccnc2F)ccc1NS(C)(=O)=O,1.4,1.37 µM,0.38,5.6 ×10⁻⁶ cm/s,
C[C@@H](OC(=O)Nc1c(-c2ccc(S(=O)(=O)NC3CC3)cc2)nnn1C)c1ccccc1Cl,2.9,,,,
C[C@@H](OC(=O)Nc1c(-c2ccc(NC(=O)C34CC(F)(C3)C4)cn2)nnn1C)c1cc(F)cnc1F,2.3,0.077 µM,0.33,11 ×10⁻⁶ cm/s,
C[C@@H](OC(=O)Nc1c(-c2ccc(NC(=O)C3CC(F)(F)C3)cn2)nnn1C)c1cc(F)cnc1F,2.4,0.021 µM,0.21,15 ×10⁻⁶ cm/s,
Cc1ccc(C(=O)Nc2ccc(-c3nnn(C)c3NC(=O)O[C@H](C)c3cc(F)cnc3F)nc2)cn1,1.7,0.109 µM,0.32,7.2 ×10⁻⁶ cm/s,
C[C@@H](OC(=O)Nc1c(-c2ccc(NC(=O)C3(C(F)F)CC3)cn2)nnn1C)c1cc(F)cnc1F,2.4,5.25 µM,0.56,40 ×10⁻⁶ cm/s,
CNS(=O)(=O)c1ccc(-c2nnn(C)c2NC(=O)O[C@H](C)c2ccccc2Cl)cc1,2.6,0.893 µM,,,

# Source: ChEMBL document CHEMBL6103545, “Discovery of GS-2278, a Potent and Selective LPAR1 Antagonist for the Treatment of Idiopathic Pulmonary Fibrosis” (J Med Chem, 2025)
